# BindingDB's records for doi:10.1016/j.bmcl.2011.11.051 (The Ohio State University, 2012)
# Molecular target: Neuronal acetylcholine receptor subunit alpha-4/beta-2 (Homo sapiens, UniProt P43681+P17787)
# Test: Antagonist activity at human nAChR alpha4/beta2 receptor expressed in HEK ts201 cells assessed as calcium accumulation by fluorescence analysis
# Neuronal acetylcholine receptor subunit alpha-4/beta-2, sequence (P43681 whole entry): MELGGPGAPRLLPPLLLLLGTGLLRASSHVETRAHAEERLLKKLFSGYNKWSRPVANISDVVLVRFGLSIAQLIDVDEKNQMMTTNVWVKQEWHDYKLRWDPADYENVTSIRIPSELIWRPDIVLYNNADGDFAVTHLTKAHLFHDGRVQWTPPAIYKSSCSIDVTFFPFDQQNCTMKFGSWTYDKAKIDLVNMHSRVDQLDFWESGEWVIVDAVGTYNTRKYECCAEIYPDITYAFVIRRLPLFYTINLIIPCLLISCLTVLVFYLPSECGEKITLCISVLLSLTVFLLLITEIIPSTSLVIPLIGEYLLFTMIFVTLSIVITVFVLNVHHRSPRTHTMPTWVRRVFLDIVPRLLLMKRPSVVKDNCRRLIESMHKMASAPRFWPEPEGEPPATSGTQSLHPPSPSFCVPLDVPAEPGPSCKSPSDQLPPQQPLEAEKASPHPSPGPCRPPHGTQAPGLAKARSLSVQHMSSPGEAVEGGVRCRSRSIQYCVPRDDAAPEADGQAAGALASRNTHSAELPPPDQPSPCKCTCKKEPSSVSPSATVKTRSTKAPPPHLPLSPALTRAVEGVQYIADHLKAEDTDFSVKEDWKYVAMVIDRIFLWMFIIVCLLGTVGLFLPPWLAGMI
# Neuronal acetylcholine receptor subunit alpha-4/beta-2, sequence (P17787 whole entry): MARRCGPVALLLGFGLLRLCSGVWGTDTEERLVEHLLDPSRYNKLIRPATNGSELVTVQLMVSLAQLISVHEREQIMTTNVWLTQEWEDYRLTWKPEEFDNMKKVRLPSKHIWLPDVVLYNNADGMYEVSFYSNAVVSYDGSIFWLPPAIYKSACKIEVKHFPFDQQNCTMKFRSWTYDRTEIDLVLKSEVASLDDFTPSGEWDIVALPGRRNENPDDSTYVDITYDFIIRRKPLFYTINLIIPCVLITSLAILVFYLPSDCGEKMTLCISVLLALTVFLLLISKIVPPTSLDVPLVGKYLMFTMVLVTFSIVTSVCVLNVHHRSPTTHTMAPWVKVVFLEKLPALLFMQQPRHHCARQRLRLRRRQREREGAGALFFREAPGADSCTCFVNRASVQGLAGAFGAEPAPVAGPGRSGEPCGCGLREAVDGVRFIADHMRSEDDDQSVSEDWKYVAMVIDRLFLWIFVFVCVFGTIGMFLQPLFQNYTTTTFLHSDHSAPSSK
row,Compound,IC50 [µM]
1,Cc1cc(O)n(-c2ccccc2C(=O)OC[C@@H]2CCCN(CCCc3ccccc3)C2)c1O,8.91
2,O=C(OCC1CCCN(CCCc2ccccc2)C1)c1ccccc1-n1c(O)cc(CCc2ccccc2)c1O (stereo not given),5.13
3,O=C(OCC1=CCCN(CCCc2ccccc2)C1)c1ccccc1-n1c(O)cc(Cc2ccccc2)c1O,5.13

# Further lines, results first:
row,IC50 [µM],Compound
1,4.47,O=C(OCC1CCCN(CCc2ccccc2)C1)c1ccccc1-n1c(O)cc(Cc2ccccc2)c1O (stereo not given)
2,4.47,CCN1CCCC(COC(=O)c2ccccc2-n2c(O)cc(Cc3ccccc3)c2O)C1 (stereo not given)
